# What was measured:
# [1] = mouse, in vivo, po, 50 mg/kg
# human GPBAR1 = target: T1, human GPBAR1 (Homo sapiens, UniProt Q8TDU6); test: GPBAR1 transactivation on HepG2 cells (CRE luciferase reporter); type: cell-based; settings: 50 and 100 μM
# T1 construct: expressed in transfected cells; host or cells: HepG2
# T1 sequence (Q8TDU6 1-330): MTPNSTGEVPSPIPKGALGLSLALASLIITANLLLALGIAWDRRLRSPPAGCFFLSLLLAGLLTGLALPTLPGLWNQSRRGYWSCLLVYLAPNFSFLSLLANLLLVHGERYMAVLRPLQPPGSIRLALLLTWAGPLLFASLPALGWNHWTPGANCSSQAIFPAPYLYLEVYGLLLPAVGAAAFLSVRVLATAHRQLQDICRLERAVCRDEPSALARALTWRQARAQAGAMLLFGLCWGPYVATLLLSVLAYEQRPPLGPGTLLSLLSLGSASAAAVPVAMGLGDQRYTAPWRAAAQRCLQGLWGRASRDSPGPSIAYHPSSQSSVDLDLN
# Procedure: For FXR mediated transactivation, HepG2 cells were plated at 5 × 10^4 cells/well in a 24 well plate. Cells were transfected with 200 ng of the reporter vector p(hsp27)-TK-LUC containing a FXR response element (IR1) cloned from the promoter of heat shock protein 27 (hsp27), 100 ng of pSG5-FXR, 100 ng of pSG5-RXR, and 100 ng of pGL4.70 (Promega), a vector encoding the human Renilla gene. For GPBAR1 mediated transactivation, HepG2 cells were plated at 5 × 10^4 cells/well in a 24 well-plate and transfected with 200 ng of pGL4.29 (Promega), a reporter vector containing a cAMP response element (CRE) that drives the transcription of the luciferase reporter gene luc2P, with 100 ng of pCMVSPORT6-human GPBAR1, and with 100 ng of pGL4.70 Renilla. […] TLCA (10 μM) was used as a positive control for GPBAR1 activity.
# LXRβ = target: T2, LXRβ (Homo sapiens, UniProt P55055); test: LXRβ transactivation on HepG2 cells (GAL4 LBD reporter); type: cell-based; settings: 10 μM
# T2 construct: expressed in transfected cells; host or cells: HepG2
# T2 sequence (P55055 222-460 limits assumed): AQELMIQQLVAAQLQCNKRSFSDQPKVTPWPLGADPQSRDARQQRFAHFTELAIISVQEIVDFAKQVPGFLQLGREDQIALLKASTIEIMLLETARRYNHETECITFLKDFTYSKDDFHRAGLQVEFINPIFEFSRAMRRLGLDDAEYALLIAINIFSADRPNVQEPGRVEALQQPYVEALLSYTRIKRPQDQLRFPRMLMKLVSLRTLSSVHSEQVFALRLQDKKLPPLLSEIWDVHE
# Procedure: To evaluate LXRα and LXRβ mediated transactivation, HepG2 cells were transfected with 200 ng of the reporter vector p(UAS)5XTKLuc, 100 ng of a vector containing the ligand binding domain of LXRα or LXRβ cloned upstream of the GAL4-DNA binding domain (i.e., pSG5-LXRαLBD-GAL4DBD or pSG5-LXRβLBD-GAL4DBD) and 100 of pGL4.70 Renilla. At 24 h post-transfection, cells were stimulated 18 h with 10 μM compound 2 and GW3965 (GW, 10 μM) was used as positive control. To investigate the PPARα and PPARγ mediated transactivation, HepG2 cells were transiently transfected with 200 ng reporter vector p(UAS)9XTKLuc, 100 ng of a vector containing the ligand binding domain of PPARα or PPARγ cloned upstream of the GAL4-DNA binding domain (i.e., pSG5- PPARαLBD-GAL4DBD or pSG5- PPARγLBD-GAL4DBD) and 100 of pGL4.70 Renilla. For PPARα transactivation, cells were stimulated with 10 μM compound 2 and gemfibrozil (GEM, 10 μM) was used as positive control. For PPARγ transactivation, cells were stimulated with 10 μM compound 2 and rosiglitazone (ROSI, 100 nM) was used as a positive control. Luciferase activities were assayed and normalized with Renilla activities.
# [2] = test system: FXR target genes in liver; test: Hepatic FXR target gene expression in C57BL6 mice (RT-PCR); type: in vivo; settings: 50 mg/kg per os, p < 0.05 versus control mice
# Procedure: (§1) HepG2 cells were plated at 1 × 10^6 cells/well in a six well plate. After an overnight incubation, cells were starved and then stimulated for 18 h with compound 2 at 1 μM. Total RNA was isolated from HepG2 cells or liver tissues using the TRIzol reagent according to the manufacturer’s specifications (Invitrogen). One microgram of purified RNA was treated with DNase-I and reverse transcribed with Superscript II (Invitrogen). For Real Time PCR, 10 ng template was dissolved in 25 μL containing 200 nmol/L of each primer and 12.5 μL of 2× SYBR FAST Universal ready mix (Invitrogen). All reactions were performed in triplicate, and the thermal cycling conditions were as follows: 2 min at 95°C, followed by 40 cycles of 95°C for 20 s and 60°C for 30 s in StepOnePlus (Applied Biosystems). The relative mRNA expression was calculated accordingly to the Ct method. Primers were designed using the software PRIMER3^1 using published data obtained from the NCBI database. Forward and reverse primer sequences were the following: human GAPDH, […] and […]; human BSEP, […] and […]; human OSTα, […] and […]; human SHP, […] and […]; mouse NTCP, […] and […]; mouse CYP7A1, […] and […]; mouse FGF21, […] and […]; mouse GAPDH, […] and […]; mouse BSEP, […] and […]; mouse OSTα, […] and […]; mouse SHP, […] and […].
# C57BL6 male mice were from Harlan Nossan (Udine, Italy). The colonies were maintained in the animal facility of University of Perugia. Mice were housed under controlled temperatures (22 °C) and photoperiods (12:12-hour light/dark cycle), allowed unrestricted access to standard mouse chow and tap water and allowed to acclimate to these conditions for at least 5 days before inclusion in an experiment. A total number of eight mice were used in this study. The study was conducted in agreement with the Italian law and the protocol was approved by Ethical Committee of University of Perugia and by a National Committee of Ministry of Health (permission N° 42/2014 B). The health and body conditions of the animals were monitored daily by the veterinarian in the animal facility. At the day of sacrifice mice were deeply anesthetized with a mixture of […]/xylazine at a dose of 50 mg/Kg.
# [3] = test system: FXR target genes SHP, OSTα, BSEP in HepG2 cells; test: RT-PCR of FXR target genes in HepG2 cells; type: cell-based, human; settings: 1 μM, 18 h, versus 6-ECDCA 1 μM
# Procedure: as §1
smiles,measurement,setting,value
"CC[C@H]1[C@@H](O)[C@@H]2[C@H](CC[C@]3(C)[C@@H]([C@H](C)CCC(=O)O)CC[C@@H]23)[C@@]2(C)CC[C@H](N=[N+]=[N-])C[C@@H]12 [compound 2, 3β-azido-6α-ethyl-7α-hydroxy-5β-cholan-24-oic acid]",liver metabolism / tauro-conjugation,[1],extensive liver metabolism
same,GPBAR1 transactivation,human GPBAR1,inactivity
same,LXRβ transactivation,LXRβ,unable in inducing
same,relative hepatic mRNA expression of BSEP,[2],significantly up-regulated
same,relative hepatic mRNA expression of CYP7A1,[2],downregulated
same,relative hepatic mRNA expression of FGF21,[2],significantly up-regulated
same,relative hepatic mRNA expression of OSTα,[2],significantly up-regulated
same,relative hepatic mRNA expression of SHP,[2],significantly up-regulated
same,modulation of BSEP mRNA expression,[3],more potent than 6-ECDCA
same,modulation of OSTα mRNA expression,[3],more potent than 6-ECDCA
same,modulation of SHP mRNA expression,[3],equipotent with 6-ECDCA

# From PMC5371667, “Targeting Bile Acid Receptors: Discovery of a Potent and Selective Farnesoid X Receptor Agonist as a New Lead in the Pharmacological Approach to Liver Diseases” (Frontiers in Pharmacology, 2017)
